Activity calls are given as the source filed them. The rule behind the calls is not given here.
Test system: CCRIS mutagenicity, Ames/micronucleus/aberration tests
Experiment: CCRIS mutagenicity studies
[1] = Test System: AMES SALMONELLA TYPHIMURIUM, Strain/Indicator: TA97, Metabolic Activation: NONE, Method: STANDARD PLATE
[2] = Test System: AMES SALMONELLA TYPHIMURIUM, Strain/Indicator: TA98, Metabolic Activation: NONE, Method: STANDARD PLATE
[3] = Test System: AMES SALMONELLA TYPHIMURIUM, Strain/Indicator: TA100, Metabolic Activation: NONE, Method: STANDARD PLATE

Measured: mutagenic call

Cc1ccc(Br)cc1
inactive: Test System: AMES SALMONELLA TYPHIMURIUM, Strain/Indicator: TA97, Metabolic Activation: HAMSTER, LIVER, S-9, AROCLOR 1254 (10%), Method: PREINCUBATION inactive; negative | Test System: AMES SALMONELLA TYPHIMURIUM, Strain/Indicator: TA97, Metabolic Activation: HAMSTER, LIVER, S-9, AROCLOR 1254 (30%), Method: PREINCUBATION inactive; negative | Test System: AMES SALMONELLA TYPHIMURIUM, Strain/Indicator: TA97, Metabolic Activation: NONE, Method: PREINCUBATION inactive; negative | Test System: AMES SALMONELLA TYPHIMURIUM, Strain/Indicator: TA97, Metabolic Activation: RAT, LIVER, S-9, AROCLOR 1254 (10%), Method: PREINCUBATION inactive; negative | Test System: AMES SALMONELLA TYPHIMURIUM, Strain/Indicator: TA97, Metabolic Activation: RAT, LIVER, S-9, AROCLOR 1254 (30%), Method: PREINCUBATION inactive; negative | Test System: AMES SALMONELLA TYPHIMURIUM, Strain/Indicator: TA98, Metabolic Activation: HAMSTER, LIVER, S-9, AROCLOR 1254 (10%), Method: PREINCUBATION inactive; negative | Test System: AMES SALMONELLA TYPHIMURIUM, Strain/Indicator: TA98, Metabolic Activation: HAMSTER, LIVER, S-9, AROCLOR 1254 (30%), Method: PREINCUBATION inactive; negative | Test System: AMES SALMONELLA TYPHIMURIUM, Strain/Indicator: TA98, Metabolic Activation: NONE, Method: PREINCUBATION inactive; negative | Test System: AMES SALMONELLA TYPHIMURIUM, Strain/Indicator: TA98, Metabolic Activation: RAT, LIVER, S-9, AROCLOR 1254 (10%), Method: PREINCUBATION inactive; negative | Test System: AMES SALMONELLA TYPHIMURIUM, Strain/Indicator: TA98, Metabolic Activation: RAT, LIVER, S-9, AROCLOR 1254 (30%), Method: PREINCUBATION inactive; negative | Test System: AMES SALMONELLA TYPHIMURIUM, Strain/Indicator: TA100, Metabolic Activation: HAMSTER, LIVER, S-9, AROCLOR 1254 (10%), Method: PREINCUBATION inactive; negative | Test System: AMES SALMONELLA TYPHIMURIUM, Strain/Indicator: TA100, Metabolic Activation: HAMSTER, LIVER, S-9, AROCLOR 1254 (30%), Method: PREINCUBATION inactive; negative | Test System: AMES SALMONELLA TYPHIMURIUM, Strain/Indicator: TA100, Metabolic Activation: NONE, Method: PREINCUBATION inactive; negative | Test System: AMES SALMONELLA TYPHIMURIUM, Strain/Indicator: TA100, Metabolic Activation: RAT, LIVER, S-9, AROCLOR 1254 (10%), Method: PREINCUBATION inactive; negative | Test System: AMES SALMONELLA TYPHIMURIUM, Strain/Indicator: TA100, Metabolic Activation: RAT, LIVER, S-9, AROCLOR 1254 (30%), Method: PREINCUBATION inactive; negative | Test System: AMES SALMONELLA TYPHIMURIUM, Strain/Indicator: TA1535, Metabolic Activation: HAMSTER, LIVER, S-9, AROCLOR 1254 (10%), Method: PREINCUBATION inactive; negative | Test System: AMES SALMONELLA TYPHIMURIUM, Strain/Indicator: TA1535, Metabolic Activation: HAMSTER, LIVER, S-9, AROCLOR 1254 (30%), Method: PREINCUBATION inactive; negative | Test System: AMES SALMONELLA TYPHIMURIUM, Strain/Indicator: TA1535, Metabolic Activation: NONE, Method: PREINCUBATION inactive; negative | Test System: AMES SALMONELLA TYPHIMURIUM, Strain/Indicator: TA1535, Metabolic Activation: RAT, LIVER, S-9, AROCLOR 1254 (10%), Method: PREINCUBATION inactive; negative | Test System: AMES SALMONELLA TYPHIMURIUM, Strain/Indicator: TA1535, Metabolic Activation: RAT, LIVER, S-9, AROCLOR 1254 (30%), Method: PREINCUBATION inactive; negative | Test System: AMES SALMONELLA TYPHIMURIUM, Strain/Indicator: TA1537, Metabolic Activation: HAMSTER, LIVER, S-9, AROCLOR 1254 (30%), Method: PREINCUBATION inactive; negative | Test System: AMES SALMONELLA TYPHIMURIUM, Strain/Indicator: TA1537, Metabolic Activation: NONE, Method: PREINCUBATION inactive; negative | Test System: AMES SALMONELLA TYPHIMURIUM, Strain/Indicator: TA1537, Metabolic Activation: RAT, LIVER, S-9, AROCLOR 1254 (30%), Method: PREINCUBATION inactive; negative

CCc1cc(C(C)(C)C)c(O)c(C(C)(C)C)c1
inactive: [1] inactive; negative | Test System: AMES SALMONELLA TYPHIMURIUM, Strain/Indicator: TA97, Metabolic Activation: S-9, Method: STANDARD PLATE inactive; negative | [2] inactive; negative | Test System: AMES SALMONELLA TYPHIMURIUM, Strain/Indicator: TA98, Metabolic Activation: S-9, Method: STANDARD PLATE inactive; negative | [3] inactive; negative | Test System: AMES SALMONELLA TYPHIMURIUM, Strain/Indicator: TA100, Metabolic Activation: S-9, Method: STANDARD PLATE inactive; negative | Test System: AMES SALMONELLA TYPHIMURIUM, Strain/Indicator: TA102, Metabolic Activation: NONE, Method: STANDARD PLATE inactive; negative | Test System: AMES SALMONELLA TYPHIMURIUM, Strain/Indicator: TA102, Metabolic Activation: S-9, Method: STANDARD PLATE inactive; negative | Test System: E.COLI, Strain/Indicator: WP2 (PKM101), Metabolic Activation: NONE, Method: STANDARD PLATE inactive; negative | Test System: E.COLI, Strain/Indicator: WP2 (PKM101), Metabolic Activation: S-9, Method: STANDARD PLATE inactive; negative

CCNc1nc(N)nc(Cl)n1
inactive: [1] inactive; negative | [2] inactive; negative | [3] inactive; negative

O=C(O)c1ccc(N=Nc2ccc(O)c(C(=O)O)c2)cc1
inactive: [2] inactive; negative | Test System: AMES SALMONELLA TYPHIMURIUM, Strain/Indicator: TA98, Metabolic Activation: RAT, LIVER, S-9, AROCLOR 1254, Method: STANDARD PLATE inactive; negative | [3] inactive; negative | Test System: AMES SALMONELLA TYPHIMURIUM, Strain/Indicator: TA100, Metabolic Activation: RAT, LIVER, S-9, AROCLOR 1254, Method: STANDARD PLATE inactive; negative | Test System: AMES SALMONELLA TYPHIMURIUM, Strain/Indicator: TA1535, Metabolic Activation: NONE, Method: STANDARD PLATE inactive; negative | Test System: AMES SALMONELLA TYPHIMURIUM, Strain/Indicator: TA1535, Metabolic Activation: RAT, LIVER, S-9, AROCLOR 1254, Method: STANDARD PLATE inactive; negative | Test System: AMES SALMONELLA TYPHIMURIUM, Strain/Indicator: TA1537, Metabolic Activation: NONE, Method: STANDARD PLATE inactive; negative | Test System: AMES SALMONELLA TYPHIMURIUM, Strain/Indicator: TA1537, Metabolic Activation: RAT, LIVER, S-9, AROCLOR 1254, Method: STANDARD PLATE inactive; negative | Test System: AMES SALMONELLA TYPHIMURIUM, Strain/Indicator: TA1538, Metabolic Activation: NONE, Method: STANDARD PLATE inactive; negative | Test System: AMES SALMONELLA TYPHIMURIUM, Strain/Indicator: TA1538, Metabolic Activation: RAT, LIVER, S-9, AROCLOR 1254, Method: STANDARD PLATE inactive; negative | Test System: CHINESE HAMSTER V-79, Strain/Indicator: V-79 (HGPRT)/8-AZAGUANINE, Metabolic Activation: NONE inactive; negative | Test System: CHINESE HAMSTER V-79, Strain/Indicator: V-79 (HGPRT)/8-AZAGUANINE, Metabolic Activation: RAT, LIVER, S-9 inactive; negative
